Measurements: US20120122860A1, “SOLID FORMS OF SULFONAMIDES AND AMINO ACIDS” (Plexxikon, Inc., priority 2009, published 2012)

Experiments:
[1] = biological target: B-Raf (Homo sapiens, UniProt P15056); experiment: Kinase activity assay, B-Raf; assay type: biochemical; conditions: read-out: activity toward kinase B-Raf, IC50
[2] = biological target: B-Raf V600E (Homo sapiens, UniProt P15056, V600E); experiment: Kinase activity assay, B-Raf V600E; assay type: biochemical; conditions: read-out: activity toward kinase B-Raf V600E, IC50
[3] = biological target: Btk (Homo sapiens, UniProt Q06187); experiment: Kinase activity assay, Btk
[4] = biological target: Fms (Homo sapiens, UniProt P07333); experiment: Kinase activity assay, Fms
Fms, sequence (P07333 20-972): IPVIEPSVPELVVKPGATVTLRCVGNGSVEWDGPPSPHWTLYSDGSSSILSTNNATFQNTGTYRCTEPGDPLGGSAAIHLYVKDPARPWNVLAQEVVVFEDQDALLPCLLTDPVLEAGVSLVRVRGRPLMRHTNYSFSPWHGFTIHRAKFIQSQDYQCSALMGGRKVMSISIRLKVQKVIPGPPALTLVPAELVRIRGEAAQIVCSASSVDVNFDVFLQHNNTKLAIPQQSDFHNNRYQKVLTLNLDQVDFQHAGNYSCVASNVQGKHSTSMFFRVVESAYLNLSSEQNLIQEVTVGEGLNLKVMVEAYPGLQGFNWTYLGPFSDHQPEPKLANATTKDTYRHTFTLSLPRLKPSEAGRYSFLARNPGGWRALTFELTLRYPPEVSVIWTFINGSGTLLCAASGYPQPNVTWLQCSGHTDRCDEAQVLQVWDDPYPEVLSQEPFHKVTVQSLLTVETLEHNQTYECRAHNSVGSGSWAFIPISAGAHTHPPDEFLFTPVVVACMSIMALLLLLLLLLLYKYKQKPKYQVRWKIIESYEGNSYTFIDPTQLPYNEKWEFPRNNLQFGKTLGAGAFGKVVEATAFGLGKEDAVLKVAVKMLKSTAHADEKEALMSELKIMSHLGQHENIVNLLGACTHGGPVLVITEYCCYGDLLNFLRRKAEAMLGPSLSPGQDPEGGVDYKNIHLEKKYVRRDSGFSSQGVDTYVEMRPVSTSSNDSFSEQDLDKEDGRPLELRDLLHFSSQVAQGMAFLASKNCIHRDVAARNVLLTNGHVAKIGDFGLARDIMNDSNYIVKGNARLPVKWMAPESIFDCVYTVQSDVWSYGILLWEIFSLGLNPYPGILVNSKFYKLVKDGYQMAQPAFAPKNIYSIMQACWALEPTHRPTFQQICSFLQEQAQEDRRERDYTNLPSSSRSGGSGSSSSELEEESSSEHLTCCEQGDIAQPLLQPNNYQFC

[5] = biological target: Kdr (Homo sapiens, UniProt P35968); experiment: Kinase activity assay, Kdr
Kdr, sequence (P35968 20-1356): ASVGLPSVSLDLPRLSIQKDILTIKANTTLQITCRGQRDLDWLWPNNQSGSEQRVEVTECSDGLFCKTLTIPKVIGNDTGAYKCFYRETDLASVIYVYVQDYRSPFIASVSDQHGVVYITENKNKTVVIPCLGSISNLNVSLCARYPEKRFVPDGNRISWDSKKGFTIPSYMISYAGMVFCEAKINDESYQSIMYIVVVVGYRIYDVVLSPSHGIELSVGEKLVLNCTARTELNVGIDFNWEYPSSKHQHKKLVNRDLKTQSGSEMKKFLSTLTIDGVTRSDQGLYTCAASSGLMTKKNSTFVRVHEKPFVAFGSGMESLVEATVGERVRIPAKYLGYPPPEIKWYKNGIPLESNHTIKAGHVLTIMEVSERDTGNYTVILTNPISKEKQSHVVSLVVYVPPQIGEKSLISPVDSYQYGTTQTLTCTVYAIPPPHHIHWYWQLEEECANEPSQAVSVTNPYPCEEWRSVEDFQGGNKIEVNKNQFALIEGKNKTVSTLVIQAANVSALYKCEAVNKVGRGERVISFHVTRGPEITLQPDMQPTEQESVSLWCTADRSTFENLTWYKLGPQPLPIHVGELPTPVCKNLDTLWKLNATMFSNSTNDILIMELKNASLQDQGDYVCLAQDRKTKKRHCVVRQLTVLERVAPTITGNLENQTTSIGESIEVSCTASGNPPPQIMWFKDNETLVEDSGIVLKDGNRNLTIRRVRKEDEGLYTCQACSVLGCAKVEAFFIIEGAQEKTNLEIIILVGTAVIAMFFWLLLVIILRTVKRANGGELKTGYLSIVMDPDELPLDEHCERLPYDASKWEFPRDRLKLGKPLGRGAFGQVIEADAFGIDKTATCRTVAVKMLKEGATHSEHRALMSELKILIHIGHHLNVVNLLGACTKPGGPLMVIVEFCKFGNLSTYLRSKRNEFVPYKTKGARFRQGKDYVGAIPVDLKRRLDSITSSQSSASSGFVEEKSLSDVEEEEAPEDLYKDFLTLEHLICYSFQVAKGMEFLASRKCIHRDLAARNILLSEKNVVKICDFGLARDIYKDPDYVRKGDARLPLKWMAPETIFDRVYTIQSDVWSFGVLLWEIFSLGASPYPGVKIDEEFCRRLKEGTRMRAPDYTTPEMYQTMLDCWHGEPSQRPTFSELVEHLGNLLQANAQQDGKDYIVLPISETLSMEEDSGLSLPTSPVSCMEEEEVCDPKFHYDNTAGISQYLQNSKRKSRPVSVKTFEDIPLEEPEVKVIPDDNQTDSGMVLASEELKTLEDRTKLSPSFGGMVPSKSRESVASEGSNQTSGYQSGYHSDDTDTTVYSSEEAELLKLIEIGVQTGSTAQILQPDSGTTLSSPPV

[6] = biological target: Kit (Homo sapiens, UniProt P10721); experiment: Kinase activity assay, Kit
[7] = biological target: Src (Homo sapiens, UniProt P12931); experiment: Kinase activity assay, Src
Src, sequence (P12931 whole entry): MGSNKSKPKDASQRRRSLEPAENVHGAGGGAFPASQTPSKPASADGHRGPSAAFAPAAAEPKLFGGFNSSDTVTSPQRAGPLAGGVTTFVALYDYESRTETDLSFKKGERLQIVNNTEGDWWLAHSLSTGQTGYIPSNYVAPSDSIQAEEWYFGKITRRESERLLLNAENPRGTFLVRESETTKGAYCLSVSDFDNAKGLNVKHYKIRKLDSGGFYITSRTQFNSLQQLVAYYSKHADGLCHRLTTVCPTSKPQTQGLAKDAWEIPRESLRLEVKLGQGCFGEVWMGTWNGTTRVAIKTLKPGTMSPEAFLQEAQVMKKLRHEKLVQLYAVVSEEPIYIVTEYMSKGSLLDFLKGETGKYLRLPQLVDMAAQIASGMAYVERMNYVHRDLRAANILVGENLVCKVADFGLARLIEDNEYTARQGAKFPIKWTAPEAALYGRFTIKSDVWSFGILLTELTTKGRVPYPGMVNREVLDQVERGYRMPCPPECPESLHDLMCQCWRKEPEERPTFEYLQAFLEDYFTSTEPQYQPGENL

[8] = biological target: T1, TEC (Homo sapiens, UniProt P42680); experiment: Kinase activity assay, TEC
T1 sequence (P42680 1-631): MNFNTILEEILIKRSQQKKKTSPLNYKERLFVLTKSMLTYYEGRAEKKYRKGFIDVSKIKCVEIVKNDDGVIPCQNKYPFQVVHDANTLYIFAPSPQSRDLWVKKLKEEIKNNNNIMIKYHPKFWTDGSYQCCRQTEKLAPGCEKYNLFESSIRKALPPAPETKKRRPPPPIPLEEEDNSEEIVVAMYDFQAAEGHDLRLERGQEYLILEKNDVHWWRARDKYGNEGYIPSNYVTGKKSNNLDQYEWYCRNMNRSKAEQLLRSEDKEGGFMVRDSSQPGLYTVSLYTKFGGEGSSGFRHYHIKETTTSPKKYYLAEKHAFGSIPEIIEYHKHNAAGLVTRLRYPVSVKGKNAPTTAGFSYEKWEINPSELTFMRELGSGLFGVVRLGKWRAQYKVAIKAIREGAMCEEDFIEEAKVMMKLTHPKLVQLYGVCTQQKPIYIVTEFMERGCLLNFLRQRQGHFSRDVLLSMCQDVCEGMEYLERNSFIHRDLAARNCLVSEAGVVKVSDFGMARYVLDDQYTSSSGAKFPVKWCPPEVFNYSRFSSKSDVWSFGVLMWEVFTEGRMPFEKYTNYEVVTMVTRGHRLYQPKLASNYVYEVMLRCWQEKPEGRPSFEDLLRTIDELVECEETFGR

[9] = biological target: C-Raf (Homo sapiens, UniProt P04049); experiment: Kinase activity assay, C-Raf
C-Raf, sequence (P04049 whole entry): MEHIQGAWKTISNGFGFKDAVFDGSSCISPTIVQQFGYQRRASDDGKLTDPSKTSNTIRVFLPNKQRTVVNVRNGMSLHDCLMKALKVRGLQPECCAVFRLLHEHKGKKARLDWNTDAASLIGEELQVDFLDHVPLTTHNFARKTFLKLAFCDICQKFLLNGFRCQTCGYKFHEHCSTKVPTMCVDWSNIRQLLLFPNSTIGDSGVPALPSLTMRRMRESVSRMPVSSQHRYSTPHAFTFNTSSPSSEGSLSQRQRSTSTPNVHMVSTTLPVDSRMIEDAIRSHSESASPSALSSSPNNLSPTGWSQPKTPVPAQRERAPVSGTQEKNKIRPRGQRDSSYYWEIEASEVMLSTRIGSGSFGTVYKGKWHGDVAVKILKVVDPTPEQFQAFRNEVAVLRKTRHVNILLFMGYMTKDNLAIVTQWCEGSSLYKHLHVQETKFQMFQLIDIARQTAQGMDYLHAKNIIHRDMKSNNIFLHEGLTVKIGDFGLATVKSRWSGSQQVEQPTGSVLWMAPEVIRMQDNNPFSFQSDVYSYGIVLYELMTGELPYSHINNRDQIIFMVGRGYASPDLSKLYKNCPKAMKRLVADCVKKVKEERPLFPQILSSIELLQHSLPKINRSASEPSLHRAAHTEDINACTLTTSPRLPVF

[10] = biological target: MAP4K4 (Homo sapiens, UniProt O95819); experiment: Kinase activity assay, MAP4K4
MAP4K4, sequence (O95819 whole entry): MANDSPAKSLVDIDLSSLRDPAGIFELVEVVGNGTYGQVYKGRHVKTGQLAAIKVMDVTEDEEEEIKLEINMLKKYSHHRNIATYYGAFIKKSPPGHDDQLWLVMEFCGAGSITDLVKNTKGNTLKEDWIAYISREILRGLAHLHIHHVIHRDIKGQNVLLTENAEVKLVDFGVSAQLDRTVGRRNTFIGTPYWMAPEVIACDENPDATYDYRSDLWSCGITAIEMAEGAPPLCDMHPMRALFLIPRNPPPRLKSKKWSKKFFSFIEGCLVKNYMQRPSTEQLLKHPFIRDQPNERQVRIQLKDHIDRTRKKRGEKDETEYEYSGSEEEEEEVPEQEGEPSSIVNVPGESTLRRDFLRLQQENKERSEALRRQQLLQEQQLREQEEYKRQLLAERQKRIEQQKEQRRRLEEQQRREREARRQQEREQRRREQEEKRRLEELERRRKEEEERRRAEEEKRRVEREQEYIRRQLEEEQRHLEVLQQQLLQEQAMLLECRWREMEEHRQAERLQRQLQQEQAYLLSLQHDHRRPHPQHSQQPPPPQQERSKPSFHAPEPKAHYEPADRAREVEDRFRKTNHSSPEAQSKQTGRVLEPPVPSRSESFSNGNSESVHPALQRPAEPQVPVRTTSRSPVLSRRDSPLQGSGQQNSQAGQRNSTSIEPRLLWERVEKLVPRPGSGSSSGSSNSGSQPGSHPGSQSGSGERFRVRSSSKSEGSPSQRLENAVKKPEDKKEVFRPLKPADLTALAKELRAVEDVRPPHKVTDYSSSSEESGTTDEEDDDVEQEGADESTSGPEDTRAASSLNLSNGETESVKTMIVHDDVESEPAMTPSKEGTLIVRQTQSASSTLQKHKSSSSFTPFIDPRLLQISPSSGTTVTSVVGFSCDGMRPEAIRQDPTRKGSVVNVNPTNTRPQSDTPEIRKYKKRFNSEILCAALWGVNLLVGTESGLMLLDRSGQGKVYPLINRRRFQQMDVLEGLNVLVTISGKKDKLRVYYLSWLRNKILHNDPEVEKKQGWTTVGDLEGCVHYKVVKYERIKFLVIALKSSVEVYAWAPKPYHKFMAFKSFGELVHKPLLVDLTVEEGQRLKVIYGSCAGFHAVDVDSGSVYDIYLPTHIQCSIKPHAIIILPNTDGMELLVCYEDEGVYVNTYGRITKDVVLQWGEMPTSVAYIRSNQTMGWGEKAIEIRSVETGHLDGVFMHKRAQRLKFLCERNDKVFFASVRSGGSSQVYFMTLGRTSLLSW

Measured: IC50

Cn1cc(-c2cnc3[nH]cc(C(=O)c4cc(NS(=O)(=O)c5cccnc5)ccc4F)c3c2)cn1 [P-2140, Pyridine-3-sulfonic acid{4-fluoro-3-[5-(1-methyl-1H-pyrazol-4-yl)-1H-pyrrolo[2,3-b]pyridine-3-carbonyl]-phenyl}-amide]
≤ 10 µM: all assays above

COc1cnc2[nH]cc(C(=O)c3cccc(NS(=O)(=O)c4cccnc4)c3)c2c1 [P-2142, Pyridine-3-sulfonic acid [3-(5-methoxy-1H-pyrrolo[2,3-b]pyridine-3-carbonyl)-phenyl]-amide]
not listed: [2] | [9]
≤ 10 µM: all other assays above

Cn1cc(-c2cnc3[nH]cc(C(=O)c4cccc(NS(=O)(=O)c5cccnc5)c4)c3c2)cn1 [P-2144, Pyridine-3-sulfonic acid {3-[5-(1-methyl-1H-pyrazol-4-yl)-1H-pyrrolo[2,3-b]pyridine-3-carbonyl]-phenyl}-amide]
not listed: [2] | [9]
≤ 10 µM: all other assays above

CN(C)S(=O)(=O)Nc1ccc(F)c(C(=O)c2c[nH]c3nccc(Cl)c23)c1F [P-2383, N,N-dimethylamino-sulfonic acid [3-(4-chloro-1H-pyrrolo[2,3-b]pyridine-3-carbonyl)-2,4-difluoro-phenyl]-amide]
≤ 10 µM: all assays above

CS(=O)(=O)Nc1cccc(-c2cnc3[nH]cc(C(=O)c4cc(NS(=O)(=O)C5CCCCC5)ccc4F)c3c2)c1 [P-2446, Cyclohexanesulfonic acid {4-fluoro-3-[5-(3-methanesulfonylamino-phenyl)-1H-pyrrolo[2,3-b]pyridine-3-carbonyl]-phenyl}-amide]
not listed: [1]
≤ 10 µM: all other assays above

Cc1cnc2[nH]cc(C(=O)c3cc(NS(=O)(=O)C4CCCC4)ccc3F)c2c1 [P-2448, Cyclopentanesulfonic acid [4-fluoro-3-(5-methyl-1H-pyrrolo[2,3-b]pyridine-3-carbonyl)-phenyl]-amide]
not listed: [1] | [2] | [9]
≤ 10 µM: all other assays above

COc1cnc2[nH]cc(C(=O)c3cccc(NS(=O)(=O)C4CCCCC4)c3)c2c1 [P-2460, Cyclohexanesulfonic acid [3-(5-methoxy-1H-pyrrolo[2,3-b]pyridine-3-carbonyl)-phenyl]-amide]
not listed: [1] | [2] | [9]
≤ 10 µM: all other assays above
